Data as given in US20120296090A1, “Drug Repositioning Methods For Targeting Breast Tumor Initiating Cells” (The Methodist Hospital Research Institute, priority 2011, published 2012).
Entries after “also recorded” stand apart in the source; their conditions may differ.

Experiments:
[1] = test system: HT-29, human colorectal adenocarcinoma; assay: Cell proliferation assay (CellTiter 96 AQueous One Solution); format: cell-based; settings: colorectal cancer cell line HT-29; 48 hours of treatment
Procedure: (§1) Five tumor cell lines were used in these studies: HT-29, human colorectal adenocarcinoma; H69, human small cell lung cancer (SCLC); H226, human non-small cell lung cancer (NSCLC) (squamous carcinoma); LNCaP, human prostate carcinoma; and U87-luc glioblastoma cell line. H69, H226, and LNCaP cells were grown in American Type Culture Collection (ATCC)-formulated RPMI-1640 Medium (ATCC, cat#30-2001; […]) supplemented with 10% fetal bovine serum (FBS) and 1% penicillin/streptomycin (Invitrogen, Carlsbad, Calif., USA). HT-29 cells were cultured in ATCC-formulated McCoy's 5a Medium (Modified) (ATCC, cat#30-2007). […]
(§2) Cell proliferation was analyzed using CellTiter 96 AQueous One Solution Cell Proliferation Assay (Promega, Madison, Wis., USA) according to the manufacturer's instructions. […] After 3-hrs' incubation, absorbance at 490 nm was measured using the FLUOstar™ Omega Microplate Reader (BMG LABTECH, Cary, N.C., USA). Background absorbance (490 nm) was corrected by subtracting the average 490 nm absorbance of the “no cell” control wells from absorbance values obtained for each of the test wells. The proliferative ratio (% surviving cells) in each sample was calculated by dividing the corrected absorbance value of treated cells by that of control cells with no drug treatment. The results were expressed as mean with standard errors from two independent studies.

[2] = test system: H226, human non-small cell lung cancer (NSCLC); assay: as above; format: cell-based
Procedure: as §1, §2

breast TICs = assay: inhibition of breast TICs in vitro and in vivo (FIG. 3, human breast cancer xenograft mammosphere formation efficiency); format: cell-based
SUM159 = assay: mammosphere-forming efficiency (MSFE) assay; format: cell-based, human; settings: 10 nM and 1 μM, after a single treatment dose
Procedure: (§3) The bioinformatics systems-based methods described herein also identified a further subset of ten drugs that were subsequently tested in vitro and in vivo for their ability to inhibit breast TICs. These in silico results were first confirmed by in vitro studies that evaluated the effects of these repositioned drugs on mammosphere-forming efficiency. […] Next, limiting dilution transplantation assays were performed, whereupon SUM159 cells were treated with […] overnight and then transplanted the next day 200,000 cells/mouse (single sided).

BT549 = assay: mammosphere-forming efficiency (MSFE) assay; format: cell-based, human; settings: 10 nM and 1 μM, after a single treatment dose
Procedure: as §3

human breast cancer TICs [3] = assay: mammosphere formation efficiency assay on triple-negative cancer cell lines; format: cell-based; settings: at least two triple-negative cancer cell lines
Text: (§4) Thus, the proposed drug-repositioning platform consists of CSB model, bioinformatics software, and drug information databases. Among the twenty-one drug candidates identified in this study, three drugs, i.e., sunitinib (Sutent®, Pfizer Oncology, New York, N.Y., USA), dasatinib (Sprycel®, Bristol-Myers Squibb, Princeton, N.J., USA) and chloroquine (Aralen®, sanofi-aventis, US, LLC, Bridgewater, N.J., USA) were further analyzed for their in vitro and in vivo effects on human breast cancer TICs, and in murine xenograft models. […] As a result of this finding, dasatinib is now currently in Phase II clinical trials for advanced breast cancer to assess the efficacy of this drug for inhibiting TICs.

human breast cancer TICs [4] = assay: dilute transplantation assay in murine xenograft models; format: in vivo
Text: as §4

SUM159 cells = assay: limiting dilution transplantation assay; format: in vivo; settings: SUM159 cells treated overnight, transplanted 200,000 cells/mouse; vehicle control 9 of 12
Procedure: as §3

MCF7 = settings: cited from earlier work; for cell growth: considered dosages (<10 μM); for cell death / apoptosis: higher dosages, MCF7

Row | SMILES | cell growth (MCF7) | cell death / apoptosis (MCF7) | other results
1 | COc1cc2ncnc(Nc3ccc(F)c(Cl)c3)c2cc1OCCCN1CCOCC1 [gefitinib] |  |  | effect on cell proliferation [1]: positive effects; effect on cell proliferation [2]: positive effects
2 | CCN(CC)CCCC(C)Nc1ccnc2cc(Cl)ccc12 (stereo not shown) [chloroquine] |  |  | inhibiting breast TICs (breast TICs): effective in inhibiting breast TICs; MSFE (mammosphere-forming efficiency) (SUM159): dramatic reduction; MSFE (mammosphere-forming efficiency) (BT549): dramatic reduction; anti-TICs effects (mammosphere formation efficiency assay) (human breast cancer TICs [3]): anti-TICs effects; anti-cancer effects in animal models (dilute transplantation assay) (human breast cancer TICs [4]): anti-cancer effects; tumor initiation rate (xenografts growing within 10 weeks) (SUM159 cells): 1 of 12
3 | O=C(c1ccc(OCCN2CCCCC2)cc1)c1c(-c2ccc(O)cc2)sc2cc(O)ccc12 [raloxifene] | significantly inhibited cell growth | induce apoptosis at higher dosages; also recorded: induced cell death at higher dosages | 
4 | C[C@]12CC[C@@H]3c4ccc(O)cc4C[C@@H](CCCCCCCCC[S+]([O-])CCCC(F)(F)C(F)(F)F)[C@H]3[C@@H]1CC[C@@H]2O (stereo partly shown) [fulvestrant] | significantly inhibited cell growth | does not induce any cell death; also recorded: did not induce the cell death | 
5 | CC(=O)O[C@H]1C(=O)[C@@]2(C)[C@H]([C@H](OC(=O)c3ccccc3)[C@]3(O)C[C@H](OC(=O)[C@H](O)[C@@H](NC(=O)c4ccccc4)c4ccccc4)C(C)=C1C3(C)C)[C@]1(OC(C)=O)CO[C@@H]1C[C@@H]2O [paclitaxel] | significantly inhibited cell growth | induce apoptosis at higher dosages; also recorded: some experiments also cause the cell death | 
6 | CC/C(=C(\c1ccccc1)c1ccc(OCCN(C)C)cc1)c1ccccc1 [tamoxifen] | significantly inhibited cell growth | induce apoptosis at higher dosages; also recorded: induced cell death at higher dosages | 
